What follows are compounds tested against T1, CYP4A (Homo sapiens, UniProt Q02928) (assay: CYP4A enzyme assay (luminescence, Luciferin-ME)). Settings: Compound concentration 5 μM; 50%-70%; read-out: % Inhibition 50%-70%.
T1 construct: purchased; host or cells: bacterial membranes ('bactosome')
T1 sequence (Q02928 5-519): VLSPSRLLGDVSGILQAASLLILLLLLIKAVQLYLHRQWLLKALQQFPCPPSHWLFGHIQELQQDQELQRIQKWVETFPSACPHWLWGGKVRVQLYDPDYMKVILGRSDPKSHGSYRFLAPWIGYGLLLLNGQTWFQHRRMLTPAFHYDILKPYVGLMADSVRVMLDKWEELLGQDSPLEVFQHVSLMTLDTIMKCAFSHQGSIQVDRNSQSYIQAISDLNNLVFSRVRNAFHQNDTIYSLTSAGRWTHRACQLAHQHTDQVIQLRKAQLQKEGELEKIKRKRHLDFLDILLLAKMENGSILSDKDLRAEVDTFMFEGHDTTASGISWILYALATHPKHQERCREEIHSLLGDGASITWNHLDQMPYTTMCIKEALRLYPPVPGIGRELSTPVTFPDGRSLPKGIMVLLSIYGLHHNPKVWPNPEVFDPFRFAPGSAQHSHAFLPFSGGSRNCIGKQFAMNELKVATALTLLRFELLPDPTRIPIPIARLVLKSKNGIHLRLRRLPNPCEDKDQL
Format: biochemical
How it was run: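 Compounds (5 μM) were preincubated 15 min at room temperature with CYP4A bactosomes in 100 mM KPO4, 0.1% BSA, 1 mM DTT. Reaction ran 30 min at room temperature after adding 5 mM Luciferin-ME and NADPH regeneration system. Luminescence after 15 min with detection reagent; inhibition judged by comparing well signals.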
`COc1ccc(C(=O)N2CCCC(C(=O)N3CCN(c4ccnc5cc(Cl)ccc45)CC3)C2)cc1` (stereo not shown) [Example 88, (4-(7-chloroquinolin-4-yl)piperazin-1-yl)(1-(4-methoxyphenylcarbonyl)piperidin-3-yl)methanone] gave an inhibition at 5 µM of 50 to 70%.
For `COc1ccc2c(N3CCN(C(=O)C4CCCN(C(=O)c5ccccc5)C4)CC3)ccnc2c1` (stereo not shown) [Example 91, (1-benzoylpiperidin-3-yl)(4-(7-methoxyquinolin-4-yl)piperazin-1-yl)methanone], the inhibition at 5 µM was 50 to 70%.
`COc1ccc2c(N3CCN(C(=O)C4CCCN(C(=O)C5CCCCC5)C4)CC3)ccnc2c1` (stereo not shown) [Example 92, (4-(7-methoxyquinolin-4-yl)piperazin-1-yl)(1-(cyclohexylcarbonyl)piperidin-3-yl)methanone] was tested, and the inhibition at 5 µM was 50 to 70%.
Compound `COc1ccc(C(=O)N2CCCC(C(=O)N3CCN(c4ccnc5cc(OC)ccc45)CC3)C2)cc1` (stereo not shown) [Example 94, (4-(7-methoxyquinolin-4-yl)piperazin-1-yl)(1-(4-methoxyphenylcarbonyl)piperidin-3-yl)methanone] has an inhibition at 5 µM of 50 to 70%.
`CC(=O)Nc1ccc(C(=O)N2CCCC(C(=O)N3CCN(c4cc(C(F)(F)F)nc5ccccc45)CC3)C2)cc1` (stereo not shown) [Example 95, N-(4-(3-(1-(2-(trifluoromethyl)quinolin-4-yl)piperazine-4-carbonyl)piperidine-1-carbonyl)phenyl)acetamide] gave an inhibition at 5 µM of 50 to 70%.
Compound `O=C(c1ccc(F)cc1)N1CCCC(C(=O)N2CCN(c3cc(C(F)(F)F)nc4ccccc34)CC2)C1` (stereo not shown) [Example 96, (1-(4-fluorobenzoyl)piperidin-3-yl)(4-(2-(trifluoromethyl)quinolin-4-yl)piperazin-1-yl)methanone] has an inhibition at 5 µM of 50 to 70%.
Work on `O=C(c1ccncc1)N1CCCC(C(=O)N2CCN(c3cc(C(F)(F)F)nc4ccccc34)CC2)C1` (stereo not shown) [Example 98, (1-isonicotinoylpiperidin-3-yl)(4-(2-(trifluoromethyl)quinolin-4-yl)piperazin-1-yl)methanone] yielded an inhibition at 5 µM of 50 to 70%.
`COc1ccc(C(=O)N2CCCC(C(=O)N3CCN(c4cc(C(F)(F)F)nc5ccccc45)CC3)C2)cc1` (stereo not shown) [Example 99, (1-(4-methoxybenzoyl)piperidin-3-yl)(4-(2-(trifluoromethyl)quinolin-4-yl)piperazin-1-yl)methanone] was tested, and the inhibition at 5 µM was 50 to 70%.
`CC(=O)Nc1ccc(C(=O)N2CCCC(C(=O)N3CCN(c4cc(C)nc5ccccc45)CC3)C2)cc1` (stereo not shown) [Example 100, N-(4-(3-(1-(2-methylquinolin-4-yl)piperazine-4-carbonyl)piperidine-1-carbonyl)phenyl)acetamide] showed an inhibition at 5 µM of 50 to 70%.
Work on `Cc1cc(N2CCN(C(=O)C3CCCN(C(=O)c4ccc(F)cc4)C3)CC2)c2ccccc2n1` (stereo not shown) [Example 101, (1-(4-fluorobenzoyl)piperidin-3-yl)(4-(2-methylquinolin-4-yl)piperazin-1-yl)methanone] yielded an inhibition at 5 µM of 50 to 70%.
`Cc1cc(N2CCN(C(=O)C3CCCN(C(=O)c4ccccc4)C3)CC2)c2ccccc2n1` (stereo not shown) [Example 102, (1-benzoylpiperidin-3-yl)(4-(2-methylquinolin-4-yl)piperazin-1-yl)methanone] gave an inhibition at 5 µM of 50 to 70%.
Work on `Cc1cc(N2CCN(C(=O)C3CCCN(C(=O)c4ccncc4)C3)CC2)c2ccccc2n1` (stereo not shown) [Example 104, (1-isonicotinoylpiperidin-3-yl)(4-(2-methylquinolin-4-yl)piperazin-1-yl)methanone] yielded an inhibition at 5 µM of 50 to 70%.
Compound `O=C(C1CCCN(C(=O)C2CCCCC2)C1)N1CCN(c2ccnc3cc(F)ccc23)CC1` (stereo not shown) [Example 108, (1-(cyclohexylcarbonyl)piperidin-3-yl)(4-(7-fluoroquinolin-4-yl)piperazin-1-yl)methanone] has an inhibition at 5 µM of 50 to 70%.
For `O=C(c1ccccc1)N1CCCC(C(=O)N2CCN(c3ccnc4ccccc34)CC2)C1` (stereo not shown) [Example 113, (1-benzoylpiperidin-3-yl)(4-(quinolin-4-yl)piperazin-1-yl)methanone], the inhibition at 5 µM was 50 to 70%.
With `O=C(C1CCCN(S(=O)(=O)C2CC2)C1)N1CCN(c2ccnc3cc(F)ccc23)CC1` (stereo not shown) [Example 119, (1-(cyclopropylsulfonyl)piperidin-3-yl)(4-(7-fluoroquinolin-4-yl)piperazin-1-yl)methanone] the inhibition at 5 µM was 50 to 70%.

Same assay, conditions: Compound concentration 5 μM; 70%-90%; read-out: % Inhibition 70%-90%
`COc1ccc2c(N3CCN(C(=O)C4CCCN(C(=O)c5ccc(NC(C)=O)cc5)C4)CC3)ccnc2c1` (stereo not shown) [Example 89, N-(4-(3-(4-(7-methoxyquinolin-4-yl)piperazine-1-carbonyl)piperidine-1-carbonyl)phenyl)acetamide] gave an inhibition at 5 µM of 70 to 90%.
`COc1ccc2c(N3CCN(C(=O)C4CCCN(C(=O)c5ccc(F)cc5)C4)CC3)ccnc2c1` (stereo not shown) [Example 90, (1-(4-fluorobenzoyl)piperidin-3-yl)(4-(7-methoxyquinolin-4-yl)piperazin-1-yl)methanone] was tested, and the inhibition at 5 µM was 70 to 90%.
Work on `COc1ccc2c(N3CCN(C(=O)C4CCCN(C(=O)c5ccncc5)C4)CC3)ccnc2c1` (stereo not shown) [Example 93, (4-(7-methoxyquinolin-4-yl)piperazin-1-yl)(1-(pyridine-4-ylcarbonyl)piperidin-3-yl)methanone] yielded an inhibition at 5 µM of 70 to 90%.
`CC(=O)Nc1ccc(C(=O)N2CCCC(C(=O)N3CCN(c4ccnc5cc(F)ccc45)CC3)C2)cc1` (stereo not shown) [Example 105, N-(4-(3-(4-(7-fluoroquinolin-4-yl)piperazine-1-carbonyl)piperidine-1-carbonyl)phenyl)acetamide] gave an inhibition at 5 µM of 70 to 90%.
For `O=C(c1ccc(F)cc1)N1CCCC(C(=O)N2CCN(c3ccnc4cc(F)ccc34)CC2)C1` (stereo not shown) [Example 106, (1-(4-fluorobenzoyl)piperidin-3-yl)(4-(7-fluoroquinolin-4-yl)piperazin-1-yl)methanone], the inhibition at 5 µM was 70 to 90%.
For `O=C(c1ccccc1)N1CCCC(C(=O)N2CCN(c3ccnc4cc(F)ccc34)CC2)C1` (stereo not shown) [Example 107, (1-benzoylpiperidin-3-yl)(4-(7-fluoroquinolin-4-yl)piperazin-1-yl)methanone], the inhibition at 5 µM was 70 to 90%.
For `O=C(c1ccncc1)N1CCCC(C(=O)N2CCN(c3ccnc4cc(F)ccc34)CC2)C1` (stereo not shown) [Example 109, (4-(7-fluoroquinolin-4-yl)piperazin-1-yl)(1-isonicotinoylpiperidin-3-yl)methanone], the inhibition at 5 µM was 70 to 90%.
Work on `COc1ccc(C(=O)N2CCCC(C(=O)N3CCN(c4ccnc5cc(F)ccc45)CC3)C2)cc1` (stereo not shown) [Example 110, (4-(7-fluoroquinolin-4-yl)piperazin-1-yl)(1-(4-methoxybenzoyl)piperidin-3-yl)methanone] yielded an inhibition at 5 µM of 70 to 90%.
For `CC(=O)Nc1ccc(C(=O)N2CCCC(C(=O)N3CCN(c4ccnc5ccccc45)CC3)C2)cc1` (stereo not shown) [Example 111, N-(4-(3-(1-(quinolin-4-yl)piperazine-4-carbonyl)piperidine-1-carbonyl)phenyl)acetamide], the inhibition at 5 µM was 70 to 90%.
For `O=C(c1ccc(F)cc1)N1CCCC(C(=O)N2CCN(c3ccnc4ccccc34)CC2)C1` (stereo not shown) [Example 112, (1-(4-fluorophenylcarbonyl)piperidin-3-yl)(4-(quinolin-4-yl)piperazin-1-yl)methanone], the inhibition at 5 µM was 70 to 90%.
Work on `O=C(c1ccncc1)N1CCCC(C(=O)N2CCN(c3ccnc4ccccc34)CC2)C1` (stereo not shown) [Example 115, (1-isonicotinoylpiperidin-3-yl)(4-(quinolin-4-yl)piperazin-1-yl)methanone] yielded an inhibition at 5 µM of 70 to 90%.
`COc1ccc(C(=O)N2CCCC(C(=O)N3CCN(c4ccnc5ccccc45)CC3)C2)cc1` (stereo not shown) [Example 116, (1-(4-methoxyphenylcarbonyl)piperidin-3-yl)(4-(quinolin-4-yl)piperazin-1-yl)methanone] gave an inhibition at 5 µM of 70 to 90%.
Compound `O=C(C1CCCN(S(=O)(=O)C2CCCCC2)C1)N1CCN(c2ccnc3cc(F)ccc23)CC1` (stereo not shown) [Example 117, (1-(cyclohexylsulfonyl)piperidin-3-yl)(4-(7-fluoroquinolin-4-yl)piperazin-1-yl)methanone] has an inhibition at 5 µM of 70 to 90%.

Same assay, conditions: Compound concentration 5 μM; Greater than 90%; read-out: % Inhibition Greater than 90%
`CC(=O)Nc1ccc(C(=O)N2CCCC(C(=O)N3CCN(c4ccnc5ccccc45)CC3)C2)cc1` (stereo not shown) [Example 111, N-(4-(3-(1-(quinolin-4-yl)piperazine-4-carbonyl)piperidine-1-carbonyl)phenyl)acetamide] gave an inhibition at 5 µM of over 90%.
Work on `Cn1ccnc1S(=O)(=O)N1CCCC(C(=O)N2CCN(c3ccnc4cc(F)ccc34)CC2)C1` (stereo not shown) [Example 118, (4-(7-fluoroquinolin-4-yl)piperazin-1-yl)(1-(1-methyl-1H-imidazol-2-ylsulfonyl)piperidin-3-yl)methanone] yielded an inhibition at 5 µM of over 90%.
`Cn1ccnc1S(=O)(=O)N1CCCC(C(=O)N2CCN(c3ccnc4ccccc34)CC2)C1` (stereo not shown) [Example 120, (1-(1-methyl-1H-imidazol-2-ylsulfonyl)piperidin-3-yl)(4-(quinolin-4-yl)piperazin-1-yl)methanone] showed an inhibition at 5 µM of over 90%.

Same assay, conditions: Compound concentration 5 μM; Less than 50%; read-out: % Inhibition Less than 50%
With `O=C(C1CCCN(C(=O)C2CCCCC2)C1)N1CCN(c2cc(C(F)(F)F)nc3ccccc23)CC1` (stereo not shown) [Example 97, (1-(cyclohexylcarbonyl)piperidin-3-yl)(4-(2-(trifluoromethyl)quinolin-4-yl)piperazin-1-yl)methanone] the inhibition at 5 µM was under 50%.
`Cc1cc(N2CCN(C(=O)C3CCCN(C(=O)C4CCCCC4)C3)CC2)c2ccccc2n1` (stereo not shown) [Example 103, (1-(cyclohexylcarbonyl)piperidin-3-yl)(4-(2-methylquinolin-4-yl)piperazin-1-yl)methanone] gave an inhibition at 5 µM of under 50%.
`O=C(C1CCCN(C(=O)C2CCCCC2)C1)N1CCN(c2ccnc3ccccc23)CC1` (stereo not shown) [Example 114, (1-(cyclohexylcarbonyl)piperidin-3-yl)(4-(quinolin-4-yl)piperazin-1-yl)methanone] was tested, and the inhibition at 5 µM was under 50%.

Reference: US12612384B2, “Heterocyclic CYP4A inhibitor compounds and compositions thereof” (MBD CO., LTD., priority 2021, dated 2026)
